{
  "source": "patent US20140051678A1",
  "about": "“INHIBITORS OF THE ACTIVITY OF COMPLEX III OF THE MITOCHONDRIAL ELECTRON TRANSPORT CHAIN AND USE THEREOF FOR TREATING DISEASES” (STEMERGIE BIOTECHNOLOGY SA, priority 2010, published 2014)",
  "key": {"U-87 MG cells": {"system": "U-87 MG cells", "experiment": "MTT cytotoxicity / mitochondrial toxicity assay, glucose vs galactose medium, U-87 MG", "format": "cell-based, Human", "settings": "for AC50: Homo sapiens", "experimental": "(§1) Human hepatocellular liver carcinoma cells (HepG2) or Human glioblastoma-astrocytoma, epithelial-like cells (U-87 MG) were plated on 96-well tissue culture treated polystyrene plates at 0.5×10^4 cells in 100 μL of Dulbecco's modified Eagle's medium containing either galactose or glucose supplemented with 10% foetal bovine serum and antibiotics per well. After 24 hr the cells are dosed with test compound at a range of concentrations and incubated for 72 nr. One hour prior to the end of the incubation period, the cells are loaded with MTT [yellow; 3-(4,5-dimethyl-2-thiazolyl)-2,5-diphenyl-2H-tetrazolium bromide], the plates are dried and re-solubilised using DMSO. The plates are then scanned using SpectraFluor Plus (TECAN).\n(§2) To measure the relative sensitivity of HepG2 or U-87 MG cells grown in medium containing either galactose or glucose to the test compound.\n(§3) Cytotoxicity was assessed using MTT. The assay provides a measurement of mitochondrial dehydrogenase activity and cell loss.\n(§4) Cell Loss: A decrease can indicate a loss of cells indicating toxicity due to necrosis, apoptosis or a reduction in cellular proliferation.\n(§5) Mitochondrial Activity: A decrease can also indicate an effect on mitochondrial function as mitochondrial dehydrogenases reduce the MTT [yellow; 3-(4,5-dimethyl-2-thiazolyl)-2,5-diphenyl-2H-tetrazolium bromide] to formazan. The formazan is detected in this assay (see assay protocol for details).\n(§6) The AC50 is calculated from a four point logistic curve fit to determine percent survival of each test agent and control compound. The fold change is calculated from AC50 curve fit data by comparison with cells grown with glucose or galactose, A greater than 5-fold response in the presence of galactose indicates the compound is considered to be a mitochondrial toxicant."}, "[1]": {"system": "glioma-initiating cells (GICs)", "experiment": "Short term dose response on gliomaspheres, cell death by FACS after trypan blue incorporation", "format": "cell-based, human", "settings": "50 μM, 48 hrs", "experimental": "Short term dose response of the compound of Example 4 was performed according to the method as described in the patent application PCT no PCTIB2010/052237 (WO 2010/134039).\nBriefly, gliomaspheres were dissociated, counted and plated at 10 cells/μl in DMEM-F12, 2% B27, 1% peni/strep, EGF and bFGF at 1 ng/ml. Cells were then treated with various amount of the compound for 48 hrs and cell death was analysed by FACS after incorporation of trypan blue (1/1000)."}, "HepG2 cells": {"system": "HepG2 cells", "experiment": "MTT cytotoxicity / mitochondrial toxicity assay, glucose vs galactose medium, HepG2", "format": "cell-based, Human", "settings": "for AC50: Homo sapiens", "experimental": "as §1, §2, §3, §4, §5, §6"}},
  "note": "Like-named read-outs stand apart in the source and are kept apart here.",
  "data": [
    {"smiles": "O=CNc1cccc(C(=O)NC2CCCCCCCC2)c1O", "note": "[Example 4, N-cyclononyl-3-formamido-2-hydroxybenzamide]", "values": [
      {"measurement": "Fold Change (AC50 glucose vs galactose)", "setting": "U-87 MG cells; 72 h", "result": ">70.1"},
      {"measurement": "AC50", "setting": "U-87 MG cells; galactose medium, 72 h, MTT, read-out: Cell Loss - Galactose AC50", "result": 1.41, "unit": "µM"},
      {"measurement": "AC50", "setting": "U-87 MG cells; glucose medium, 72 h, MTT, read-out: Cell Loss - Glucose AC50", "result": "> 100", "unit": "µM"},
      {"measurement": "Cell Loss - Galactose MEC", "setting": "U-87 MG cells; galactose medium, 72 h, MTT", "result": 1, "unit": "µM"},
      {"measurement": "Cell Loss - Glucose MEC", "setting": "U-87 MG cells; glucose medium, 72 h, MTT", "result": ">100", "unit": "µM"},
      {"measurement": "Mitochondrial Toxicant", "setting": "U-87 MG cells; greater than 5-fold response in galactose = mitochondrial toxicant", "result": "Yes"},
      {"measurement": "fold increase cell death", "setting": "[1]", "result": "≥ 1.2", "unit": "fold"},
      {"measurement": "Fold Change (AC50 glucose vs galactose)", "setting": "HepG2 cells; HepG2, 72 h", "result": 9.92},
      {"measurement": "Cell Loss - Galactose MEC", "setting": "HepG2 cells; HepG2, galactose medium, 72 h, MTT", "result": 4, "unit": "µM"},
      {"measurement": "Cell Loss - Glucose MEC", "setting": "HepG2 cells; HepG2, glucose medium, 72 h, MTT", "result": 10, "unit": "µM"},
      {"measurement": "Mitochondrial Toxicant", "setting": "HepG2 cells; HepG2, greater than 5-fold response in galactose = mitochondrial toxicant", "result": "Yes"},
      {"measurement": "AC50", "setting": "HepG2 cells; HepG2, galactose medium, 72 h, MTT, read-out: Cell Loss - Galactose AC50", "result": 2.4, "unit": "µM"},
      {"measurement": "AC50", "setting": "HepG2 cells; HepG2, glucose medium, 72 h, MTT, read-out: Cell Loss - Glucose AC50", "result": 23.8, "unit": "µM"}
    ]}
  ]
}
